Measurements as given in US20250019369A1, “N-(4-aminocyclohexyl)pyrimidine-4-carboxamide derivatives as CD38 inhibitors” (Cerevance, Inc., priority 2021, published 2025).
pIC50: −log10 of the molar value. Structures can show the parent of a compound that is named as a salt. Where two headings read alike, the source gives them in different places.

Assays:
[1] = Tissue binding assay, brain homogenate (equilibrium dialysis); assay type: in vitro ADME; details: dialysis 4 hours at 37° C., dilution factor 4
Protocol: (§1) Buffer preparation. A basic solution was prepared by dissolving 14.2 g/L Na2HPO4 and 8.77 g/L NaCl in deionized H2O. An acidic solution was prepared by dissolving 15.6 g/L NaH2PO4·2H2O and 8.77 g/L NaCl in deionized H2O. Using the acidic solution, the basic solution was then titrated to pH 7.4±0.1 and stored at 4° C. for up to 1 month. The stop solution was 100% CH3CN containing 200 ng/mL tolbutamide, 200 ng/mL labetalol and 50 ng/mL metformin.
(§2) Test method. Dialysis membrane strips were soaked in ultra-pure water at room temperature for ˜1 hour. Each membrane strip containing 2 membranes was separated and soaked in 20:80 EtOH/H2O (v/v) for ˜20 min, after which they were ready for use or were stored in the solution at 2-8° C. for up to 1 month. Prior to the experiment, the membrane was rinsed and soaked for 20 min in ultra-pure water. On the day of experiment, brain homogenate was thawed in a water bath at room temperature and incubated at 37° C. for 10 min before use. Test and control compounds were dissolved in DMSO to achieve 10 mM stock solutions. DMSO working solutions were prepared at 400 μM by diluting 10 μL of stock solution. To prepare the time zero (t=0) samples to be used for recovery determination, 50 μL aliquots of loading matrix were transferred in triplicate to the sample collection plate. The samples were immediately matched with opposite blank buffer to obtain a final volume of 100 μL of 1:1 matrix/dialysis buffer (v/v) in each well. 500 μL of stop solution were added to these t=0 samples. They were then stored at 2-8° C. pending further processes along with other post-dialysis samples. To load the dialysis device, an aliquot of 150 μL of the loading matrix was transferred to the donor side of each dialysis well in triplicate, and 150 μL of the dialysis buffer was loaded to the receiver side of the well. The dialysis plate was placed in a humidified incubator at 37° C. with 5% CO2 on a shaking platform that rotated slowly (about 100 rpm) for 4 hours. At the end of the dialysis, aliquots of 50 μL of samples were taken from both the buffer side and the matrix side of the dialysis device. These samples were transferred into new 96-well plates. Each sample was mixed with an equal volume of opposite blank matrix (buffer or matrix) to reach a final volume of 100 μL of 1:1 matrix/dialysis buffer (v/v) in each well. All samples were further processed by adding 500 μL of stop solution containing internal standards. The mixture was vortexed and centrifuged at 4000 rpm for about 20 min. An aliquot of 100 μL of supernatant of all the samples was then removed for LC-MS/MS analysis. The single blank samples were prepared by transferring 50 μL of blank matrix to a 96-well plate and adding 50 μL of blank PBS buffer to each well. Then the matrix-matched samples were further processed by adding 500 μL of stop solution containing internal standards, following the same sample processing method as the dialysis samples.
(§3) Data analysis. The % undiluted unbound, % undiluted bound and % recovery were calculated using the following equations:
(§4) % Undiluted Unbound=100*1/D/((1/(F/T)−1)+1/D)
(§5) % Undiluted Bound=100−% Undiluted Unbound
(§6) where F is the analyte concentration or peak area ratio of analyte/internal standard on the buffer (receiver) side of the membrane; T is the analyte concentration or peak area ratio of analyte/internal standard on the matrix (donor) side of the membrane; To is the analyte concentration or the peak area ratio of analyte/internal standard in the loading matrix sample at time zero; and D is the dilution factor determined as 4 in this assay.

[2] = Tissue binding assay, plasma (equilibrium dialysis); assay type: in vitro ADME; details: dialysis 4 hours at 37° C.
Protocol: [The source words this procedure for another target and reports this target under the same test.] as §1, §2, §3, §4, §5, §6

[3] = PK brain permeability in C57BL/6 mice after single oral gavage; assay type: in vivo; details: male, C57BL/6, mouse, 2 hours post dose; for concentration at 2 h: po, 10 mg/kg; for Kpu,u (unbound brain/plasma partition coefficient) at 2 h: oral 10 mg/kg, read-out: Kpu,u (unbound partitioning coefficient, Cb,u/Cp,u)
Protocol: The distribution of compounds into the brain in vivo was determined in C57BL/6 mice following single oral (po) gavage administration.
Test compounds were formulated at 1 mg/mL in 0.5% HPMC E4 M, 0.2% Tween 80 in water to achieve solutions or homogenous suspensions suitable for po administration.
Formulations were administered to 3 male C57BL/6 mice at a volume of 10 mL/kg resulting in a dose level of 10 mg/kg. Blood samples were collected at 1 and 2 hours post dose into tubes containing K2EDTA as anticoagulant, processed to plasma and stored at −60° C. or lower until LC-MS/MS analysis. Brains were harvested 2 hours post dose, rinsed with saline, dried, weighed and homogenised under ice cold conditions. Brain homogenates were stored at −60° C. or lower until LC-MS/MS analysis.
Dose formulation concentrations were verified using a LC-UV or LC-MS/MS method. Test compound concentrations in plasma and brain homogenate were quantitatively determined using LC-MS/MS methods developed in individual matrices against calibration curves with QC samples included and acceptance criteria as per CRO SOPs. Concentrations in brain homogenate were corrected for the dilution factor used to prepare the homogenate to give concentrations in whole brain tissue.
Plasma and brain concentration versus time data were reported and plotted in excel. The brain to plasma ratio at 2 hours post dose was calculated for each animal using the following equation:
Brain:plasma=brain concentration (ng/g) at 2 h/plasma concentration (ng/mL) at 2 h
As only unbound test compound is available to exert an effect on the target, unbound plasma (Cp,u) and unbound brain (Cb,u) concentrations were calculated by correcting the total concentrations for the unbound fraction in plasma (fu,p) or brain (fu,b) determined from in vitro plasma protein or brain tissue binding assays using the following equations: […]
The unbound partitioning coefficient (Kpu,u) was then calculated based on the ratio of Cb,u to Cp,u using the following equation: […]
In these studies, mice were orally administrated a 10 mg/kg dose and sacrificed 2 hours post dose and tissue samples (brain homogenate and plasma) were analyzed subsequently as described above.

[4] = biological target: Recombinant human CD38 (Homo sapiens (Human), UniProt P28907); assay: Human CD38 hydrolase assay (fluorescence, ε-NAD substrate); assay type: biochemical; details: recombinant human CD38 0.8 nM, 4 μM ε-NAD, 30 min preincubation at 25° C., pH 7.4
Recombinant human CD38, sequence (P28907 whole entry): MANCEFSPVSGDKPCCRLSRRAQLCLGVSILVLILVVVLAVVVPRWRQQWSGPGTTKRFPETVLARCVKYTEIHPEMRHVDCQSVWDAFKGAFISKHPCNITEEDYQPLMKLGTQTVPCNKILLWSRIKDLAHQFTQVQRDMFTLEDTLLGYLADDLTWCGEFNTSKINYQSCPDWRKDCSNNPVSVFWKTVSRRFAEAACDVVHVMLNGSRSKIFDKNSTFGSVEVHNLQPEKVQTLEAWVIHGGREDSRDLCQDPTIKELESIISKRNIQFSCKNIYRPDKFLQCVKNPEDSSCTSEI
Protocol: (§7) The ability of test compounds to inhibit human CD38 hydrolase activity was measured in a fluorescence-based assay using non-physiological NAD^+ substrate analogue 1,N^6-etheno NAD^+ (ε-NAD). Recombinant human CD38 (0.8 nM) was preincubated with test compounds in 384-well black microplates for 30 min at 25° C. in PBS (—Ca^2+/Mg^2+) containing 0.005% BSA (pH 7.4). CD38 hydrolase activity was initiated by addition of 4 μM ε-NAD, which yields the fluorescent product 1,N^6-etheno ADP-ribose. Formation of fluorescent product was followed using ClarioStar Plus (BMG) microplate reader by reading fluorescence (excitation λ=300 nm; emission λ=410 nm) at two time points, one immediately after substrate addition (t=0) and one at 10 min (t=10).
(§8) Data was analysed by subtracting the values detected at t=0 from t=10 to correct for variation in baseline fluorescence. Fluorescence values were converted to percent inhibition using the average of high signal (CD38 and ε-NAD) and low signal (CD38 and ε-NAD in the presence of a tool CD38 inhibitor) control wells. IC50 values were determined from a 10-point, half log concentration response curve with a four-parameter logistic equation.

[5] = biological target: Recombinant mouse CD38 (Mus musculus (Mouse), UniProt P56528); assay: Mouse CD38 hydrolase assay (fluorescence, ε-NAD substrate); assay type: biochemical; details: recombinant mouse CD38 0.4 nM, 12 μM ε-NAD, 30 min preincubation at 25° C., pH 7.4
Recombinant mouse CD38, sequence (P56528 whole entry): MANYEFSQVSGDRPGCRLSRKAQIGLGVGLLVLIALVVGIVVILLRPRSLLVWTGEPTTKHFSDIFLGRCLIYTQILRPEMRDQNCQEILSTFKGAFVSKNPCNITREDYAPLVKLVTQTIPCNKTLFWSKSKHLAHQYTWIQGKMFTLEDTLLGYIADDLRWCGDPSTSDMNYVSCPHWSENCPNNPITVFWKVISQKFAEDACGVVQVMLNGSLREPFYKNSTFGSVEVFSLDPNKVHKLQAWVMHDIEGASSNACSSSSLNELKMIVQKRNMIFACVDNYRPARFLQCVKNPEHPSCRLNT
Protocol: as §7, with “inhibit mouse” for “inhibit human”, “Recombinant mouse” for “Recombinant human”, “CD38 (0.4” for “CD38 (0.8”, “of 12” for “of 4”, “at 6” for “at 10”, “min (t=6).” for “min (t=10).”
as §8, with “t=6” for “t=10”, “fluorescence, and fluorescence” for “fluorescence. Fluorescence”

[6] = brain, read-out: total brain conc.
[7] = brain, total corrected for unbound fraction in brain, read-out: free brain conc.
[8] = plasma, read-out: total plasma conc.
[9] = plasma, total corrected for unbound fraction in plasma, read-out: free plasma conc.

Mouse brain (% unbound) [1] [% unbound] | Mouse plasma (% unbound) [2] [% unbound] | concentration at 2 h [3, 6] [nM] | concentration at 2 h [3, 7] [nM] | Kpu,u (unbound brain/plasma partition coefficient) at 2 h [3] | concentration at 2 h [3, 8] [nM] | concentration at 2 h [3, 9] [nM] | pIC50 [4] | pIC50 [5] | Compound
13.6 | 6.9 | 77 | 10 | 0.08 | 1680 | 115 | – | – | Cc1cc(C(=O)N[C@H]2CC[C@H](OC(F)F)CC2)nc(-n2ccnc2)n1 [Example 17, N-((1r,4r)-4-(difluoromethoxy)cyclohexyl)-2-(1H-imidazol-1-yl)-6-methyl-pyrimidine-4-carboxamide, reference compound]
28.4 | 25.3 | 430 | 122 | 0.03 | 13000 | 3290 | – | – | Cc1cc(C(=O)N[C@H]2CC[C@](C)(O)CC2)nc(-n2ccnc2)n1 [Example 18, N-((1r,4r)-4-hydroxy-4-methylcyclohexyl)-2-(1H-imidazol-1-yl)-6-methyl-pyrimidine-4-carboxamide, reference compound]
– | – | – | – | – | – | – | ≥ 6.00 | ≥ 7.40 | Cc1cc(C(=O)N[C@H]2CC[C@H](N)CC2)nc(-n2ccnc2)n1 [Example 27, N-((1r,4r)-4-aminocyclohexyl)-2-(1H-imidazol-1-yl)-6-methyl-pyrimidine-4-carboxamide Formate]
